Entries after “also recorded” stand apart in the source; their conditions may differ.
Key:
[1] = system: MDCK cells; details: dog
[2] = system: Influenza virus strain A/Goose/Dalian/3/2001 (H9N2); type: cell-based, avian influenza virus H9N2
[3] = system: avian influenza virus H9N2; type: cell-based
[4] = system: Influenza virus strain A/Goose/Dalian/3/2001 (H9N2); type: cell-based, avian influenza virus H9N2; remark: listed apart in the source
[5] = system: enterovirus 71; details: enterovirus 71 on rhabdomyosarcoma cells; cited from earlier work
[6] = system: Kunming mice; details: cited from earlier work
[7] = system: enterovirus 71; details: mice challenged with a lethal dose of enterovirus 71; cited from earlier work

Row | Molecule | TCD0 (maximum non-toxic concentration) [1] [mg/mL] | Activity: CPE [2] | Activity (see Table 1) qualitative [3] | Activity (see Table 1) semi-quantitative [3] | Activity against H9N2 in vitro (in words) [3] | Activity: HI [4] | viral RNA copy number [5] | LD50 ([6]; Kunming mice, acute toxicity, 95% confidence limit 88.08-280.31 mg/kg) [mg/kg] | tolerable dose ([6]; Kunming mice, acute toxicity) | Morphological observation ([6]; brain tissue of mice) | mortality and clinical symptoms [7]
1 | O=C1CCC[C@@H]2[C@H]3CCCN4CCC[C@H](CN12)[C@@H]34 [sophoridine] | >2 | The CPE of 2 mg/ml sophoridine-treated group was more severe than that of the viral control at 48 h. The CPE of other test groups with low concentration were consistent with that of the viral control at 48 h. | 1 | 1 | low | had HI activity only at concentration of TCD0; also recorded: There was no H of 2 mg/ml sophoridine-treated group at any test time points. But the rest test groups had H at all test time points | – | – | – | – | –
2 | CC(=O)Oc1ccccc1C(=O)O [aspirin] | >0.5 | No differences between all treatment and control groups. | 0 | 0 | – | No differences between all treatment and control groups. | – | – | – | – | –
3 | O=C1CCC[C@@H]2[C@H]3CCC[N+]4([O-])CCC[C@H](CN12)[C@@H]34 (stereo partly shown) [oxysophoridine] | >2 | No differences between all treatment and control groups | 0 | 0 | did not show any similar bioactivities | No differences between all treatment and control groups | – | – | – | – | –
4 | phillyrin | – | could not alleviate CPE; also recorded: The CPE of 0.5 and 0.25 mg/ml phillyrin-treated groups were more severe than that of the viral control group within 48 h | 1 | 1 | – | had HI activity; also recorded: There was no H in 0.25 mg/ml phillyrin-treated group at 24 h and in 0.5mg/ml phillyrin-treated group at 24 or 48 h | – | – | – | – | –
5 | O=C1CCC[C@@H]2[C@H]3CCC[N+]4([O-])CCC[C@@H](CN12)[C@@H]34 (stereo partly shown) [oxymatrine] | >2 | No differences between all treatment and control groups. | 0 | 0 | did not show any similar bioactivities | No differences between all treatment and control groups. | – | – | – | – | –
6 | O=C(/C=C/c1ccc(O)c(O)c1)O[C@@H]1C[C@](O)(C(=O)O)C[C@@H](O)[C@H]1O [chlorogenic acid] | 0.016 | No differences between all treatment and control groups. | 0 | 0 | – | No differences between all treatment and control groups. | – | – | – | – | –
7 | CCOC(=O)C1=C[C@@H](OC(CC)CC)[C@H](NC(C)=O)[C@@H](N)C1 [OS (template), Oseltamivir] | 0.5 | The CPE of 0.5mg/ml OS-treated group was more severe than viral control group within 48 h. The CPE of groups 0.25, 0.125 and 0.0625 mg/ml were milder than viral control at 72 h. | 1 | 3 | had activity of alleviating CPE and HI against H9N2 in vitro | No hemagglutination (H) was found in all tested groups at 24, 48 or 72 h. | – | – | – | – | –
8 | O=C1CCC[C@@H]2[C@H]3CCCN4CCC[C@@H](CN12)[C@@H]34 [matrine] | 0.4 | could protect MDCK cells from H9N2 in a dose-dependent manner; also recorded: The CPE of 0.4, 0.2 and 0.1 mg/ml matrine groups were milder than that of the viral control group | 1 | 3 | had activity of alleviating CPE and HI against H9N2 in vitro and high | There was no H in 0.2 mg/ml matrine-treated group at 24 h and in 0.4mg/ml matrine-treated group at 24 or 48 h. | could suppress the viral RNA copy number on rhabdomyosarcoma cells | 157.13 | above 80 mg/kg | degenerative changes of the nerve cells in the brain tissue of the mice | reduced the mortality and relieved clinical symptoms
